Experimental data: patent US10143748B2, “B-cell reduction using CD37-specific and CD20-specific binding molecules” (Emergent Product Development Seattle, LLC, priority 2005, dated 2018)

Legend:
CD37 = target: T1, CD37 (Homo sapiens, UniProt P11049); test: competitive binding / FACs cross blocking of FITC anti-CD37 reagents on BJAB cells; set-up: BJAB-cells, a B lymphoblastoid B-cell line, (courtesy of Ed Clark, University of Washington); endogenous in cells; host or cells: BJAB B lymphoblastoid cell line; conditions: unlabeled blocking reagent, FIG. 2
T1 sequence (P11049 1-281): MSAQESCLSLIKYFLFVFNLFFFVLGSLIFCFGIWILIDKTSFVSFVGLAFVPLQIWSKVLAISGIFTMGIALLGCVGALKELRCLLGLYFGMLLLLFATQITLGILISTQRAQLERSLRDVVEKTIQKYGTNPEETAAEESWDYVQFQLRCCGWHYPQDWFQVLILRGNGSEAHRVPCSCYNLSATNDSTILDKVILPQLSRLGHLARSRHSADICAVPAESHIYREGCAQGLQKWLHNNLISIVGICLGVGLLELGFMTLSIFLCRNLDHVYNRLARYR
Protocol: FITC labeled antibody conjugates were titrated from 10 μg/mL to 10 pg/mL in an initial binding study to determine the optimal amounts to use in the blocking studies. The level chosen was just below saturating amounts, and was kept constant in the subsequent assays, while levels of blocking antibody were increased over a 10-fold range. Data were plotted as percent of maximal binding versus concentration of blocking antibody, so that higher levels indicate less efficient blocking, while lower levels indicate more efficient blocking activity.
BJAB-cells, a B lymphoblastoid B-cell line, (courtesy of Ed Clark, University of Washington) were then stained with a panel of various clones of anti-CD37 MAbs, including MB371, BL14, NMN46, IPO24, HH1, WR17, and the TRU-016 SMIP.
For competitive binding assays, 2.5×10^5 BJAB cells were incubated in 96-well V-bottom plates in staining media (PBS with 2% mouse sera) with the FITC-conjugated anti-CD37 MAbs at 1.25 μg/mL in the presence of unconjugated anti-CD37 MAb at the indicated concentrations (2.5, 1.25, 0.6, or 0.3 μg/ml) or staining media for 45 minutes on ice in the dark. Blocking antibodies and FITC labeled antibody conjugates were added to reactions prior to addition of cells. […] The cells were analyzed by flow cytometry using a FACsCalibur instrument and CellQuest software (BD Biosciences, San Jose, Calif.). […]

Ramos tumors = test: Ramos tumor xenograft in nude mice; assay type: in vivo, mouse
Protocol: Mouse tumor xenograft studies exploring combination therapies were performed using nude mice (Harlan) and Ramos or Daudi human tumor lines. Ramos or Daudi tumor cells were grown in T150 flasks in IMDM/10% FBS until they reached 80% confluency. Five million (5×10^6) cells were used as a tumor inoculum per mouse. Cells were injected subcutaneously in the right flank using PBS in a total volume of 0.1 ml or 5.0×1 0^7/ml. Nude mice were allowed to develop tumors and sorted into groups based on tumor size/volume. For each treatment group, 12 mice with a mean tumor volume of approximately 222 mm^3 (range =152-296mm^3) were used. Some mean tumor volumes ranging from 237-251 mm^3 were also used. […] Tumor volume was measured daily with calipers until completion of the experiment (sacrifice or regression).
Mouse tumor xenograft studies were performed using nude mice (Harlan) and Ramos or Daudi human tumor lines. Three different studies were performed based on tumor type and tumor size at the time of treatment with the TRU-016 or other test reagent. Ramos or Daudi tumor cells were grown and (5×10^6) cells were injected subcutaneously in the right flank to inoculate each treated mouse with the tumor. Nude mice were allowed to develop tumors and sorted into groups based on tumor size/volume. In the first study, for each treatment group, 12 mice with a mean tumor volume of 155-237 mm^3 were used. […] Tumor volume was measured daily with calipers until completion of the experiment (sacrifice or regression).
Ramos and Daudi tumor cells were separately grown and (5×10^6) cells were injected subcutaneously in the right flank of mice to initiate the formation of mouse tumor xenografts. After tumor development, mice were sorted into groups based on tumor size/volume (day 0). […] Tumor volume was blindly measured three times weekly with calipers until completion of the experiment (sacrifice or regression).

BJAB cells = test: Annexin V/PI apoptosis analysis, BJAB; assay type: cell-based
Protocol: Experiments examining the effect of B cell targeted SMIPS on B cell line apoptosis were performed. Each SMIP was tested individually and then in combination. Samples were analyzed at both 24 and 48 hours after initiation of incubation reactions. […] In addition, 20 μg/mL goat anti-human IgG was added to reactions in order to cross link reagents on the cell surface. Cells were then stained with Annexin V-FITC and propidium iodide using the BD Pharmigen Apoptosis Detection Kit I (#556547), and processed according to kit instructions. Briefly, cells were washed twice with cold PBS and resuspended in “binding buffer” at 1×10^6 cells/mL. One hundred microliters of the cells in binding buffer were then stained with 5 μl of Annexin V-FITC and 5 μl of propidium iodide. The cells were gently vortexed and incubated in the dark at room temperature for 15 minutes. Four hundred microliters of binding buffer was then added to each sample. They were then read and analyzed on a FACsCalibur (Becton Dickinson) instrument using Cell Quest software (Becton Dickinson).

DHL-4 B cells = test: CDC assay on DHL-4 B cells; assay type: cell-based; conditions: FIG. 7
Protocol: Cells were suspended in Iscoves (#12440-053, Gibco/Invitrogen, Granland, N.Y.) at 5×10E^5 cells/well in 75 μl. […] Binding reactions were allowed to proceed for 45 minutes prior to centrifugation and washing in serum free Iscoves. Cells were resuspended in Iscoves with human serum (#A113, Quidel, San Diego, Calif.) at the indicated concentrations. The cells were incubated 60 minutes at 37° C. Cells were washed by centrifugation and resuspended in 125 μl PBS with 2% FBS (#16140-071, Gibco, Invitrogen, Grand Island, N.Y.), staining media. The cells were transferred to FACS cluster tubes (#4410, CoStar, Corning, N.Y.) and 125 μl staining media with 5 μl propidium iodide (PI, #P-16063, Molecular Probes, Eugene Oreg.) was added. Samples were incubated 15 minutes at room temperature in the dark prior to analysis by flow cytometry using a FACsCalibur and CellQuest software (Becton Dickinson).

C1q = target: T2, C1q (Homo sapiens, UniProt P02745+P02746+P02747); test: FITC C1q binding to reagent-coated Ramos B cells in normal human serum; conditions: normal human serum 1.25-10%, FIG. 3A
T2 construct: normal human serum (NHS, #A113, Quidel Corp., San Diego, Calif.); tissue Quidel Corp. A113; host or cells: normal human serum (purchased), added to reagent-coated Ramos B cells
T2 sequence (P02745 23-245): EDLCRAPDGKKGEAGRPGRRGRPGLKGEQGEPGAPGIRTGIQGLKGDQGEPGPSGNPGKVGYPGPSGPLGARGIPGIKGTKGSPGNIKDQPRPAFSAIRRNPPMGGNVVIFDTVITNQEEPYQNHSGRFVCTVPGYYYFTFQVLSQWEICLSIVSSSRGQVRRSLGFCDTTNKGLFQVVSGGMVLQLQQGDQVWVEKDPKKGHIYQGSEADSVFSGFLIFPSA
T2 sequence (P02746 28-253): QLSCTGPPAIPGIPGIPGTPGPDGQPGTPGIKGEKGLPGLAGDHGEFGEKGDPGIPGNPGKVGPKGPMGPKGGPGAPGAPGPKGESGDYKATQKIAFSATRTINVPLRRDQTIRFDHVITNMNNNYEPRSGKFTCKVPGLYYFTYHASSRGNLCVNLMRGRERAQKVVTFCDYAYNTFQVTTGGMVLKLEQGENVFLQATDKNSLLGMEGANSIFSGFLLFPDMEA
T2 sequence (P02747 29-245): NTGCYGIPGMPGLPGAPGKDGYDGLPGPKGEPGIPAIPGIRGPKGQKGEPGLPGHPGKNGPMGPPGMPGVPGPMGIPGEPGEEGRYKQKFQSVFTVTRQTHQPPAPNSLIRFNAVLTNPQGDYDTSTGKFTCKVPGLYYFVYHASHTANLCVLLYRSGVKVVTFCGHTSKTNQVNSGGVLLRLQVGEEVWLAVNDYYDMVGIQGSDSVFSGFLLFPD
Protocol: C1q binding studies were performed as previously described (Cragg et al., Blood 2004, 103:2738-2743). Briefly, Ramos B-cells in Iscoves media (#12440-053, Gibco/Invitrogen, Grand island, NY) with no serum were plated in 96-well V bottom plates at 5×10^5/well in 100 μl. Cells were incubated with reagents for 15 minutes at 37° C., and normal human serum (NHS, #A113, Quidel Corp., San Diego, Calif.) diluted in Iscoves was then added at a volume of 50 μl to each well for a final concentration of 10, 5, 2.5, or 1.25% human serum. Fifty μl of media was added to the control well. For cobra venom factor (CVF) experiments, CVF was added to human serum complement samples at 20 Units CVF/mL of serum for 90 minutes at 37° C. prior to addition of serum to complement assays, and the dilution of serum by CVF accounted for when making sample dilutions.
The cells plus complement source were incubated for an additional 5 minutes at 37° C., and washed 2 times with cold PBS (#14040-133, Gibco/Invitrogen, Grand Island, N.Y.) via centrifugation and resuspended in 100 μl of PBS. Fifty μl from each well was transferred to a second plate for second step control staining. […] Samples were washed, resuspended in cold PBS, and read immediately on a FACsCalibur flow cytometer and analyzed with Cell Quest software (Becton Dickinson, San Jose, Calif.).

G28-1 scFv VH11S(SSC—P)H WCH2 WCH3 [TRU-016]
blocking activity (inhibition of binding of FITC anti-CD37 conjugates) (CD37): highest level of blocking activity
long-term complete regression of tumors (tumor regression rate) (Ramos tumors; Ramos tumors, 200 μg, pooled data from 3 experiments): 20%
average tumor volume after treatment (Ramos tumors; Ramos, 200 μg/mouse IV days 0, 2, 4, 6, 8, versus huIgG): smaller than that observed using the negative control (huIgG)
Median Survival Time (Ramos tumors; established Ramos tumors, 200 μg): 16 days
Percentage of Tumor- Free Mice at Day 90 (Ramos tumors; established Ramos tumors, 200 μg, IV days 0, 2, 4, 6, 8): 20%
survival time / median survival time (Ramos tumors; established Ramos tumors, combination vs TRU-016 p=0.028, vs rituximab p=0.045): inhibition of tumor growth and improved survival times equivalent to rituximab
tumor growth and median survival (Ramos tumors; mice with the smaller Ramos tumors): inhibition of tumor growth and increased median survival times
Annexin V Positive (BJAB cells; Bjab, 20 μg/mL SMIP, goat anti-human IgG crosslinking): 30.6
effect on apoptosis of cell lines (BJAB cells; in the presence of crosslinking, BJAB, Ramos, Daudi, Table 2): more significant effect on apoptosis of cell lines than TRU-015 alone
CDC killing of DHL-4 B cells (DHL-4 B cells): little or no activity alone
FITC C1q binding (C1q): does not bind well
